# Results published in patent publication US20110111044A1, “NANOPARTICLE COMPOSITIONS FOR NUCLEIC ACIDS DELIVERY SYSTEM” (ENZON PHARMACEUTICALS, INC., priority 2008, published 2011).
# Columns and labels:
# [1] = system: ErbB3 mRNA; experiment: ErbB3 mRNA KD in tumor of 15PC3 human prostate cancer xenografted mice; type: in vivo; conditions: 45 mg/kg i.v. q3d×4 (G8)
# Method: (§1) The in vivo efficacy of nanoparticles described herein was evaluated in human prostate cancer xenografted mice. The 15PC3 human prostate tumors were established in nude mice by subcutaneous injection of 5×10^6 cells/mouse into the right auxiliary flank. When tumors reached the average volume of 100 mm^3, the mice were randomly grouped 5 mice per group. The mice of each group were treated with nanoparticle encapsulating antisense ErbB3 oligonucleotides (Sample NP5) or corresponding naked oligonucleotides (Oligo 2). The nanoparticles were given intravenously (i.v.) at 15 mg/kg/dose, 5 mg/kg/dose, 1 mg/kg/dose, or 0.5 mg/kg/dose at q3d×4 for 12 days. The dosage amount is based on the amount of oligonucleotides in the nanoparticles. The naked oligonucleotides were given intraperitoneally (i.p.) at 30 mg/kg/dose or intravenously at 25 mg/kg/dose or 45 mg/kg/dose at q3d×4 for 12 days. The mice were sacrificed twenty four hours after the final dose. Plasma samples were collected from the mice and stored at −20° C. Tumor and liver samples were also collected from the mice. The samples were analyzed for mRNA KD.
# [2] = system: ErbB3 mRNA; experiment: ErbB3 mRNA KD in liver of 15PC3 human prostate cancer xenografted mice; type: in vivo; conditions: 25 mg/kg/dose i.v. q3d×4 (G7)
# Method: as §1
substance,measurement,setting,value
"Oligo-2: antisense ErbB3 LNA, 5′-TAGcctgtcacttmCTmC-3′, phosphorothioate linkage; naked oligonucleotide (antisense 5'-TAGcctgtcactt^{m}CT^{m}C-3'; LNA, as printed in the source, key not given here)",ErbB3 mRNA expression inhibited in tumor,[1],about 37%
same,ErbB3 mRNA KD activity in liver,[2],about 87%
